Patent publication US20240116985A1, “STAPLED PEPTIDES AND METHODS THEREOF” (priority 2020, published 2024)

Assays:
[1] = target: T1, beta-catenin/TCF4 engagement (Homo sapiens, UniProt P35222); experiment: Nano-BRET target engagement assay (B-cat-Halo & TCF4-Luc in HEK293 cells); type: cell-based; conditions: absolute IC50; read-out: NanoBRET Abs IC50
T1 construct: expressed in transfected cells; host or cells: HEK293
T1 sequence (P35222 1-781): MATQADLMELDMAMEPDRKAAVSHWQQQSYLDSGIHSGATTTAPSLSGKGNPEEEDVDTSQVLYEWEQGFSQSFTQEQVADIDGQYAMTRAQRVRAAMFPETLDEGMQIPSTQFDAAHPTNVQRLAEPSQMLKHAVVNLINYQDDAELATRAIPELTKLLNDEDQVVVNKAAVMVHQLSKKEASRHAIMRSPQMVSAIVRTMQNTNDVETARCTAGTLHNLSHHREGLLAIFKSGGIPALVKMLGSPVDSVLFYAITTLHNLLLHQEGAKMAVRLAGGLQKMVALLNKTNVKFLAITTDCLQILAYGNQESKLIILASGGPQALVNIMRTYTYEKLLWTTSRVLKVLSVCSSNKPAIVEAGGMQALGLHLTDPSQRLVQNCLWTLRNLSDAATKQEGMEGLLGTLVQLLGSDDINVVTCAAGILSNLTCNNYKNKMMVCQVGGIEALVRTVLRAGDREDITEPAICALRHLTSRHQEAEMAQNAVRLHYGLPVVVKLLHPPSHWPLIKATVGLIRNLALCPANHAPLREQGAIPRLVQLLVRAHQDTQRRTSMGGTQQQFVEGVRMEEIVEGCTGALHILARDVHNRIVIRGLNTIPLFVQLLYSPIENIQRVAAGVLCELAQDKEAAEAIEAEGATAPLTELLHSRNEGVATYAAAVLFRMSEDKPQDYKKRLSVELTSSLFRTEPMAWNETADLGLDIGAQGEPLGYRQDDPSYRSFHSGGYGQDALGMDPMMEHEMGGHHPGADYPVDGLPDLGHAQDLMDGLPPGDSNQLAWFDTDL

[2] = target: T2, full-length beta-Catenin (Uniprot ID P35222) (Homo sapiens, UniProt P35222); experiment: Fluorescence polarization IC50 (beta-catenin / 5FAM-TCF4 10-53 competition); type: binding; conditions: fluorescence polarization; read-out: beta-Catenin FP IC50
T2 construct: 10 nM full-length beta-Catenin (Uniprot ID P35222)
T2 sequence (P35222 1-781): T1 sequence (P35222 1-781)

Row | IC50 [1] [nM] | IC50 [2] [nM] | Compound
1 | > 20000 | 16 | CC(=O)N1CCC[C@]12CC=CCCCC1(CCCC=CCCCOC(=O)N3CC[C@@](C(=O)N[C@@H](Cc4ccsc4)C(=O)N[C@@H](Cc4csc5ccccc45)C(=O)N[C@@H](CCC(N)=O)C(N)=O)(C3)NC(=O)[C@H](CC(C)C)NC(=O)[C@H](Cc3ccccc3)NC(=O)[C@H](CCCCNC(=O)COCCOCCNC(=O)C34CC5(C)CC(C)(CC(C)(C5)C3)C4)NC(=O)[C@H](C)NC(=O)[C@H](CC(=O)O)NC(=O)[C@H](CC(=O)O)NC1=O)NC(=O)[C@H](CC(C)(C)C)NC(=O)[C@H](CC(=O)O)NC2=O (stereo partly drawn) [I-1476, Ac-PL3-Asp-Npg-B5-Asp-Asp-Ala-[Me3AdamantC-PEG2]-Lys-Phe-Leu-PyrS2-3Thi-BztA-Gln-NH2]
2 | 9300 | 37 | CC(=O)N1CCC[C@]12CC=CCCCC1(CCCC=CCCCOC(=O)N3CC[C@@](C(=O)N[C@@H](Cc4ccsc4)C(=O)N[C@@H](Cc4csc5ccccc45)C(=O)N[C@@H](CCC(N)=O)C(=O)N[C@@H](CCCCNC(=O)COCCOCCNC(=O)C45CC6(C)CC(C)(CC(C)(C6)C4)C5)C(N)=O)(C3)NC(=O)[C@H](CC(C)C)NC(=O)[C@H](Cc3ccccc3)NC(=O)[C@H](C)NC(=O)[C@H](C)NC(=O)[C@H](CC(=O)O)NC(=O)[C@H](CC(=O)O)NC1=O)NC(=O)[C@H](CC(C)(C)C)NC(=O)[C@H](CC(=O)O)NC2=O (stereo partly drawn) [I-1480, Ac-PL3-Asp-Npg-B5-Asp-Asp-Ala-Ala-Phe-Leu-PyrS2-3Thi-BztA-Gln-Me3AdamantC-PEG2]-Lys-NH2]
3 | 18000 | 7 | CC(=O)N1CCC[C@]12CC=CCCCC1(CCCC=CCCCOC(=O)N3CC[C@@](C(=O)N[C@@H](Cc4ccsc4)C(=O)N[C@@H](Cc4csc5ccccc45)C(=O)N[C@@H](CCC(N)=O)C(N)=O)(C3)NC(=O)[C@H](CC(C)C)NC(=O)[C@H](Cc3ccccc3)NC(=O)[C@H](C)NC(=O)[C@H](CCCN3CCC(F)(F)CC3)NC(=O)[C@H](CC(=O)O)NC(=O)[C@H](CC(=O)O)NC1=O)NC(=O)[C@H](CC(C)(C)C)NC(=O)[C@H](CC(=O)O)NC2=O (stereo partly drawn) [I-1482, Ac-PL3-Asp-Npg-B5-Asp-Asp-F2PipNva-Ala-Phe-Leu-PyrS2-3Thi-BztA-Gln-NH2]
4 | > 20000 | 22 | CC(=O)N1CCC[C@]12CC=CCCCC1(CCCC=CCCCOC(=O)N3CC[C@@](C(=O)N[C@@H](Cc4ccsc4)C(=O)N[C@@H](Cc4csc5ccccc45)C(=O)N[C@@H](CCC(N)=O)C(N)=O)(C3)NC(=O)[C@H](CC(C)C)NC(=O)[C@H](Cc3ccccc3)NC(=O)[C@H](C)NC(=O)[C@H](CC(=O)N3CCOCC3)NC(=O)[C@H](CC(=O)O)NC(=O)[C@H](CC(=O)O)NC1=O)NC(=O)[C@H](CC(C)(C)C)NC(=O)[C@H](CC(=O)O)NC2=O (stereo partly drawn) [I-1483, Ac-PL3-Asp-Npg-B5-Asp-Asp-MorphAsn-Ala-Phe-Leu-PyrS2-3Thi-BztA-Gln-NH2]
5 | > 20000 | 30 | CC(=O)N1CCC[C@]12CC=CCCCC1(CCCC=CCCCOC(=O)N3CC[C@@](C(=O)N[C@@H](Cc4ccsc4)C(=O)N[C@@H](Cc4csc5ccccc45)C(=O)N[C@@H](CCC(N)=O)C(N)=O)(C3)NC(=O)[C@H](CC(C)C)NC(=O)[C@H](Cc3ccccc3)NC(=O)[C@H](C)NC(=O)[C@H](CC(=O)N3CCN(C)CC3)NC(=O)[C@H](CC(=O)O)NC(=O)[C@H](CC(=O)O)NC1=O)NC(=O)[C@H](CC(C)(C)C)NC(=O)[C@H](CC(=O)O)NC2=O (stereo partly drawn) [I-1484, Ac-PL3-Asp-Npg-B5-Asp-Asp-MePpzAsn-Ala-Phe-Leu-PyrS2-3Thi-BztA-Gln-NH2]
6 | 25800 | 7 | CC(=O)N1CCC[C@]12CC=CCCCC1(CCCC=CCCCOC(=O)N3CC[C@@](C(=O)N[C@@H](Cc4ccsc4)C(=O)N[C@@H](Cc4csc5ccccc45)C(=O)N[C@@H](CCC(N)=O)C(N)=O)(C3)NC(=O)[C@H](CCCN3CCOCC3)NC(=O)[C@H](Cc3ccccc3)NC(=O)[C@H](C)NC(=O)[C@H](C)NC(=O)[C@H](CC(=O)O)NC(=O)[C@H](CC(=O)O)NC1=O)NC(=O)[C@H](CC(C)(C)C)NC(=O)[C@H](CC(=O)O)NC2=O (stereo partly drawn) [I-1485, Ac-PL3-Asp-Npg-B5-Asp-Asp-Ala-Ala-Phe-MorphNva-PyrS2-3Thi-BztA-Gln-NH2]
7 | 17900 | 5 | CC(=O)N1CCC[C@]12CC=CCCCC1(CCCC=CCCCOC(=O)N3CC[C@@](C(=O)N[C@@H](Cc4ccsc4)C(=O)N[C@@H](Cc4csc5ccccc45)C(=O)N[C@@H](CCC(N)=O)C(N)=O)(C3)NC(=O)[C@H](CCCN3CCC(F)(F)CC3)NC(=O)[C@H](Cc3ccccc3)NC(=O)[C@H](C)NC(=O)[C@H](C)NC(=O)[C@H](CC(=O)O)NC(=O)[C@H](CC(=O)O)NC1=O)NC(=O)[C@H](CC(C)(C)C)NC(=O)[C@H](CC(=O)O)NC2=O (stereo partly drawn) [I-1486, Ac-PL3-Asp-Npg-B5-Asp-Asp-Ala-Ala-Phe-F2PipNva-PyrS2-3Thi-BztA-Gln-NH2]
8 | 21500 | 7 | CC(=O)N1CCC[C@]12CC=CCCCC1(CCCC=CCCCOC(=O)N3CC[C@@](C(=O)N[C@@H](Cc4ccsc4)C(=O)N[C@@H](Cc4csc5ccccc45)C(=O)N[C@@H](CCC(N)=O)C(N)=O)(C3)NC(=O)[C@H](CC(=O)N3CCOCC3)NC(=O)[C@H](Cc3ccccc3)NC(=O)[C@H](C)NC(=O)[C@H](C)NC(=O)[C@H](CC(=O)O)NC(=O)[C@H](CC(=O)O)NC1=O)NC(=O)[C@H](CC(C)(C)C)NC(=O)[C@H](CC(=O)O)NC2=O (stereo partly drawn) [I-1487, Ac-PL3-Asp-Npg-B5-Asp-Asp-Ala-Ala-Phe-MorphAsn-PyrS2-3Thi-BztA-Gln-NH2]
9 | 30300 | 6 | CC(=O)N1CCC[C@]12CC=CCCCC1(CCCC=CCCCOC(=O)N3CC[C@@](C(=O)N[C@@H](Cc4ccsc4)C(=O)N[C@@H](Cc4csc5ccccc45)C(=O)N[C@@H](CCC(N)=O)C(N)=O)(C3)NC(=O)[C@H](CC(=O)N3CCN(C)CC3)NC(=O)[C@H](Cc3ccccc3)NC(=O)[C@H](C)NC(=O)[C@H](C)NC(=O)[C@H](CC(=O)O)NC(=O)[C@H](CC(=O)O)NC1=O)NC(=O)[C@H](CC(C)(C)C)NC(=O)[C@H](CC(=O)O)NC2=O (stereo partly drawn) [I-1488, Ac-PL3-Asp-Npg-B5-Asp-Asp-Ala-Ala-Phe-MePpzAsn-PyrS2-3Thi-BztA-Gln-NH2]
10 | 7300 | 5 | CC(=O)N1CCC[C@]12CC=CCCCC1(CCCC=CCCCOC(=O)N3CC[C@@](C(=O)N[C@@H](Cc4ccsc4)C(=O)N[C@@H](Cc4csc5ccccc45)C(=O)N[C@@H](CC(N)=O)C(N)=O)(C3)NC(=O)[C@H](CC(C)C)NC(=O)[C@H](Cc3ccccc3)NC(=O)[C@H](C)NC(=O)[C@H](C)NC(=O)[C@H](CC(=O)O)NC(=O)[C@H](CC(=O)O)NC1=O)NC(=O)[C@H](CC(C)(C)C)NC(=O)[C@H](CC(=O)O)NC2=O (stereo partly drawn) [I-1492, Ac-PL3-Asp-Npg-B5-Asp-Asp-Ala-Ala-Phe-Leu-PyrS2-3Thi-BztA-Asn-NH2]
11 | 4900 | 10 | CC(=O)N1CCC[C@]12CC=CCCCC1(CCCC=CCCCOC(=O)N3CC[C@@](C(=O)N[C@@H](Cc4ccsc4)C(=O)N[C@@H](Cc4csc5ccccc45)C(=O)N[C@@H](CO)C(N)=O)(C3)NC(=O)[C@H](CC(C)C)NC(=O)[C@H](Cc3ccccc3)NC(=O)[C@H](C)NC(=O)[C@H](C)NC(=O)[C@H](CC(=O)O)NC(=O)[C@H](CC(=O)O)NC1=O)NC(=O)[C@H](CC(C)(C)C)NC(=O)[C@H](CC(=O)O)NC2=O (stereo partly drawn) [I-1493, Ac-PL3-Asp-Npg-B5-Asp-Asp-Ala-Ala-Phe-Leu-PyrS2-3Thi-BztA-Ser-NH2]

Row | Compound | IC50 [1] [nM] | IC50 [2] [nM]
12 | CC(=O)N1CCC[C@]12CC=CCCCC1(CCCC=CCCCOC(=O)N3CC[C@@](C(=O)N[C@@H](Cc4ccsc4)C(=O)N[C@@H](Cc4csc5ccccc45)C(=O)N[C@@H](CCC(N)=O)C(N)=O)(C3)NC(=O)[C@H](CC(C)C)NC(=O)[C@H](Cc3ccccc3)NC(=O)[C@H](CCCCNC(=O)COCCOCCNC(=O)CC[C@@H](C)[C@H]3CC[C@H]4[C@@H]5CC[C@@H]6C[C@H](O)CC[C@]6(C)[C@H]5CC[C@]34C)NC(=O)[C@H](C)NC(=O)[C@H](CC(=O)O)NC(=O)[C@H](CC(=O)O)NC1=O)NC(=O)[C@H](CC(C)(C)C)NC(=O)[C@H](CC(=O)O)NC2=O (stereo partly drawn) [I-1474, Ac-PL3-Asp-Npg-B5-Asp-Asp-Ala-[lithocholate-PEG2]-Lys-Phe-Leu-PyrS2-3Thi-BztA-Gln-NH2] | > 20000 | 41
13 | CC(=O)N1CCC[C@]12CC=CCCCC1(CCCC=CCCCOC(=O)N3CC[C@@](C(=O)N[C@@H](Cc4ccsc4)C(=O)N[C@@H](Cc4csc5ccccc45)C(=O)N[C@@H](CCC(N)=O)C(=O)N[C@@H](CCCCNC(=O)COCCOCCNC(=O)CC[C@@H](C)[C@H]4CC[C@H]5[C@@H]6CC[C@@H]7C[C@H](O)CC[C@]7(C)[C@H]6CC[C@]45C)C(N)=O)(C3)NC(=O)[C@H](CC(C)C)NC(=O)[C@H](Cc3ccccc3)NC(=O)[C@H](C)NC(=O)[C@H](C)NC(=O)[C@H](CC(=O)O)NC(=O)[C@H](CC(=O)O)NC1=O)NC(=O)[C@H](CC(C)(C)C)NC(=O)[C@H](CC(=O)O)NC2=O (stereo partly drawn) [I-1478, Ac-PL3-Asp-Npg-B5-Asp-Asp-Ala-Ala-Phe-Leu-PyrS2-3Thi-BztA-Gln-[lithocholate-PEG2]-Lys-NH2] | 17100 | 75
